Measurements: patent publication US20150320787A1, “COBALAMIN COMPOSITIONS AND METHODS FOR TREATING OR PREVENTING MUCOSITIS” (OraHealth Corp., priority 2006, published 2015)

Tests used:
[1] = Placebo-controlled test of adhering dissolving discs, one each day, in subjects with minor RAU at least monthly; format: in vivo, human; settings: active group, seven subjects, discs with 500 mcg methylcobalamin, 30 discs, placebo discs with red food coloring
From the text: (§1) Troches in the form of dissolving muco-adhesive tablets may be made by pressing powders including mucoadhesive hydrocolloids. A preferred form of such an adhering troche may be made by mixing dry powders consisting of 80 percent acacia gum (gum arabic) for adhesive and 20 percent xylitol for flavor, then adding up to 1 percent carboxymethylcellulose (CMC), to enhance mouth feel, moderate adhesiveness of the acacia gum, and slow dissolution, and about 500 micrograms of cobalamin. The tablet may be pressed into the shape shown in FIG. 3 for good adhesion to a tooth. Such a tablet is suitably about 8 mm in diameter and about 85 milligrams in weight.
(§2) The typical instruction to users is to stick a troche in their mouths, just before they go to sleep, between teeth and cheek, placing it on the tongue side of the teeth if the patient suffers particularly from ulcers on or under the tongue and otherwise placing it on the cheek side. In greater detail, the instructions state: “Use after brushing teeth, at least one disc per day, and allow to dissolve for 30 minutes with nothing else in your mouth. In an area of your mouth where you experience sores, use your tongue to hold the dimpled side of the disc against a tooth until it adheres. The disc will slowly dissolve over 10 to 40 minutes, releasing cobalamin which is absorbed directly into the mouth lining tissues. […]

[2] = Non-blinded test of active adhering dissolving discs in additional subjects; format: in vivo, human
From the text: as §1, §2

For `C/C1=C2/[N-][C@H]([C@H](CC(N)=O)[C@@]2(C)CCC(=O)NC[C@@H](C)OP(=O)([O-])O[C@H]2[C@@H](O)[C@@H](n3cnc4cc(C)c(C)cc43)O[C@@H]2CO)[C@]2(C)N=C(/C(C)=C3N=C(/C=C4N=C1[C@@H](CCC(N)=O)C\4(C)C)[C@@H](CCC(N)=O)[C@]\3(C)CC(N)=O)[C@@H](CCC(N)=O)[C@]2(C)CC(N)=O.[CH3-].[Co+3]` [methylcobalamin], which “subjects who reported a benefit (reduced frequency of minor RAU, reduced duration of ulcers, or reduced peak pain levels)” value [1] is on record?
The value was 100%.

What about the “time after stopping the discs until an ulcer with a pain level like before starting (mean)” value ([2]; five subjects who reported a benefit and stopped using the discs) of the same compound?
Its value is 4.8 days.

And the “subjects who reported a benefit of using the discs” value ([2]; twenty-five additional non-blinded subjects, active discs with 500 mcg methylcobalamin)?
The value was 96%.
